Positions count from the first letter of the chain named. Read-outs that look alike come from different tables or passages of the source.

Common to all, as to format: binding
Assay [1] has as its target T1, CePOFUT1 (Caenorhabditis elegans, UniProt Q18014).
T1 construct: gene pfut-1; codon-optimized synthetic gene in pPICZalphaA with KEX2 cleavage signal, secreted from Pichia pastoris X-33; monomer
T1 sequence (Q18014 26-382): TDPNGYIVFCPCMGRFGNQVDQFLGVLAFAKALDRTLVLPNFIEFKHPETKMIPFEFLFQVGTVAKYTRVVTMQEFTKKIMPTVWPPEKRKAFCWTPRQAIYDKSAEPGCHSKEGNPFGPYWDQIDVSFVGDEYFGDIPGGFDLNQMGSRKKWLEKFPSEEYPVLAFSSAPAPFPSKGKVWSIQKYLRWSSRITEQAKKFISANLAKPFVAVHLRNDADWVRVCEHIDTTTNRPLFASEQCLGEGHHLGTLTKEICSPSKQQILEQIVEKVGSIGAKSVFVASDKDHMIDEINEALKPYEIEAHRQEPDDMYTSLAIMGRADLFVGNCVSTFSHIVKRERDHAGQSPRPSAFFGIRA
In words: thermal shift assay (ANS fluorescence). From the text: (§1) thermal shift assay (ANS fluorescence) on CePOFUT1

Assay [2] addresses T1, CePOFUT1. In words: isothermal titration calorimetry. Particulars: read-out: K d (μM)GDP-fucose. From the text: (§2) isothermal titration calorimetry on CePOFUT1
Assay [3] deals with T2, CePOFUT1 (Caenorhabditis elegans, UniProt Q18014, D309N).
T2 construct: gene pfut-1; codon-optimized synthetic gene in pPICZalphaA with KEX2 cleavage signal, secreted from Pichia pastoris X-33; monomer
T2 sequence (Q18014 26-382 D309N): T1 sequence (Q18014 26-382) with D284N
In words: thermal shift assay (ANS fluorescence). Particulars: read-out: ΔT m (°C)1 mM GDP.
From the text: as §1

Assay [4] has as its target T3, CePOFUT1 (Caenorhabditis elegans, UniProt Q18014, R240K).
T3 construct: gene pfut-1; codon-optimized synthetic gene in pPICZalphaA with KEX2 cleavage signal, secreted from Pichia pastoris X-33; monomer
T3 sequence (Q18014 26-382 R240K): T1 sequence (Q18014 26-382) with R215K
The experiment in a line: isothermal titration calorimetry.
From the text: as §2

In assay [5] the target is T4, CePOFUT1 (Caenorhabditis elegans, UniProt Q18014, F357A).
T4 construct: gene pfut-1; codon-optimized synthetic gene in pPICZalphaA with KEX2 cleavage signal, secreted from Pichia pastoris X-33; monomer
T4 sequence (Q18014 26-382 F357A): T1 sequence (Q18014 26-382) with F332A
The experiment in a line: isothermal titration calorimetry.
From the text: as §2

For assay [6], the target named is T5, CePOFUT1 (Caenorhabditis elegans, UniProt Q18014, F261A).
T5 construct: gene pfut-1; codon-optimized synthetic gene in pPICZalphaA with KEX2 cleavage signal, secreted from Pichia pastoris X-33; monomer
T5 sequence (Q18014 26-382 F261A): T1 sequence (Q18014 26-382) with F236A
The experiment in a line: isothermal titration calorimetry.
From the text: as §2

For assay [7], the target named is T6, CePOFUT1 (Caenorhabditis elegans, UniProt Q18014, W245A).
T6 construct: gene pfut-1; codon-optimized synthetic gene in pPICZalphaA with KEX2 cleavage signal, secreted from Pichia pastoris X-33; monomer
T6 sequence (Q18014 26-382 W245A): T1 sequence (Q18014 26-382) with W220A
In words: isothermal titration calorimetry.
From the text: as §2

Assay [8] addresses T7, CePOFUT1 (Caenorhabditis elegans, UniProt Q18014, N43A).
T7 construct: gene pfut-1; codon-optimized synthetic gene in pPICZalphaA with KEX2 cleavage signal, secreted from Pichia pastoris X-33; monomer
T7 sequence (Q18014 26-382 N43A): T1 sequence (Q18014 26-382) with N18A
In words: isothermal titration calorimetry.
From the text: as §2

In assay [9] the target is T8, CePOFUT1 (Caenorhabditis elegans, UniProt Q18014, F199A).
T8 construct: gene pfut-1; codon-optimized synthetic gene in pPICZalphaA with KEX2 cleavage signal, secreted from Pichia pastoris X-33; monomer
T8 sequence (Q18014 26-382 F199A): T1 sequence (Q18014 26-382) with F174A
The experiment in a line: isothermal titration calorimetry.
From the text: as §2

The target in assay [10] is T9, CePOFUT1 (Caenorhabditis elegans, UniProt Q18014, R40A).
T9 construct: gene pfut-1; codon-optimized synthetic gene in pPICZalphaA with KEX2 cleavage signal, secreted from Pichia pastoris X-33; monomer
T9 sequence (Q18014 26-382 R40A): T1 sequence (Q18014 26-382) with R15A
In words: isothermal titration calorimetry.
From the text: as §2

For assay [11], the target named is T10, CePOFUT1 (Caenorhabditis elegans, UniProt Q18014, D244A).
T10 construct: gene pfut-1; codon-optimized synthetic gene in pPICZalphaA with KEX2 cleavage signal, secreted from Pichia pastoris X-33; monomer
T10 sequence (Q18014 26-382 D244A): T1 sequence (Q18014 26-382) with D219A
In words: isothermal titration calorimetry.
From the text: as §2

In assay [12] the target is T11, CePOFUT1 (Caenorhabditis elegans, UniProt Q18014, D242A).
T11 construct: gene pfut-1; codon-optimized synthetic gene in pPICZalphaA with KEX2 cleavage signal, secreted from Pichia pastoris X-33; monomer
T11 sequence (Q18014 26-382 D242A): T1 sequence (Q18014 26-382) with D217A
The experiment in a line: isothermal titration calorimetry.
From the text: as §2

As for `C[C@@H]1O[C@H](OP(=O)(O)OP(=O)(O)OC[C@H]2O[C@@H](n3cnc4c(=O)[nH]c(N)nc43)[C@H](O)[C@@H]2O)[C@@H](O)[C@H](O)[C@@H]1O` [GDP-fucose], the ΔTm at 1000 µM on CePOFUT1 [1] (read-out: ΔT m (°C)1 mM GDP-fucose) was determined as 2.19 °C. At CePOFUT1 [2], the Kd worked out at 0.23 ± 0.04 µM.

For `Nc1nc2c(ncn2[C@@H]2O[C@H](COP(=O)(O)OP(=O)(O)O)[C@@H](O)[C@H]2O)c(=O)[nH]1` [GDP], the ΔTm at 1000 µM on CePOFUT1 [3] worked out at 5.01 °C; on CePOFUT1 [1] (read-out: ΔT m (°C)1 mM GDP) it was 4.21 °C. Moreover, the Kd at CePOFUT1 [4] is 61.2 ± 10.5 µM; on CePOFUT1 [5] it was 26.9 ± 5 µM; at CePOFUT1 [6] it was 120 ± 70 nM; on CePOFUT1 [7], 1600 ± 400 nM; on CePOFUT1 [8], 300 ± 90 nM; at CePOFUT1 [9] it was 180 ± 30 nM. The Kd worked out at 3.1 ± 0.53 µM at CePOFUT1 [10], 100 ± 10 nM at CePOFUT1 [11] and 90 ± 20 nM on CePOFUT1 [12].

Values taken from article PMC3180450, “Structural Insights into the Mechanism of Protein O-Fucosylation” (PLoS ONE, 2011).
